Results published in patent EP0406958B1, “Positive inotropic and lusitropic 3,5-dihydroimidazo[2,1-b]quinazolin-2(1H)-one derivatives” (JANSSEN PHARMACEUTICA N.V., priority 1989, dated 1991).
Values belong to the compound of their own block, whether it stands above or below them.

How the values were obtained:
Human Platelet PDE IIIc = target: T1, Human Platelet PDE IIIc (Homo sapiens, UniProt Q14432); assay: Inhibition of phosphodiesterase type IIIc (3H-cAMP hydrolysis), human platelet enzyme; type: biochemical; settings: pH 7.1, 1.2 µM 3H-cAMP, 10 min at 37°C; IC50 calculated graphically
T1 construct: canine heart and human platelet phosphodiesterase PDE IIIc; from tissue; host or cells: human platelets
T1 sequence (Q14432 whole entry): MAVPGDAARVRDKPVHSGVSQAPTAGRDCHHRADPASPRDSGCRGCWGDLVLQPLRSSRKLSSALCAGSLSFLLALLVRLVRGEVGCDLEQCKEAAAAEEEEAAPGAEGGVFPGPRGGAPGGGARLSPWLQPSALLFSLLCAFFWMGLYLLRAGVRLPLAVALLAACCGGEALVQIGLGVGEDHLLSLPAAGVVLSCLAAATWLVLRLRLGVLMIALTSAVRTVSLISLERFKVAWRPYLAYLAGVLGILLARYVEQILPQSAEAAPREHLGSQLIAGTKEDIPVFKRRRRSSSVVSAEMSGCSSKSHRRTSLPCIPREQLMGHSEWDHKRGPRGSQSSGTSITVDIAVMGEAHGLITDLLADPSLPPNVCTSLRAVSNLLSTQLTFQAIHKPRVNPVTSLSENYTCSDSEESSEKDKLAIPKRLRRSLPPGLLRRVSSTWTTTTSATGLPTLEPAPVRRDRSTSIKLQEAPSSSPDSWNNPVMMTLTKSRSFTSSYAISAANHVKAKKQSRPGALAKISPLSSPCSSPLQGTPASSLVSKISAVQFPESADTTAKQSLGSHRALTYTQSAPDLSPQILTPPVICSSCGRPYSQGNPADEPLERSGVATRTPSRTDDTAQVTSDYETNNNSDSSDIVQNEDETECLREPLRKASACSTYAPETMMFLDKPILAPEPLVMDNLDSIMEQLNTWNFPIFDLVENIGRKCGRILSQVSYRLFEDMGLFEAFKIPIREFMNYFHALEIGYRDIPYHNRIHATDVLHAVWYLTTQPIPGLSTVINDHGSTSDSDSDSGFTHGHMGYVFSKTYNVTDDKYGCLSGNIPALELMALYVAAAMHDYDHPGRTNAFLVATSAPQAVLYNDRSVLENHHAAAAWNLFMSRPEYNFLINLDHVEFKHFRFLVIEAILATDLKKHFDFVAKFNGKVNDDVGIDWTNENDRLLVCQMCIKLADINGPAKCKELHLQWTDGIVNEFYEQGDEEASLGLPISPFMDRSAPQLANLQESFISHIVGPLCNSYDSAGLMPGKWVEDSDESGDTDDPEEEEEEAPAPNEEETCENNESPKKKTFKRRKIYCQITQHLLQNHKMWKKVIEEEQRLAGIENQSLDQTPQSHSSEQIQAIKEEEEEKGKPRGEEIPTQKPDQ
Experimental: The incubation mixture (pH 7.1) (200 »l) contained 50mM 4-morpholinopropanesulfonic acid (MOPS), 1mM ethylenebis(oxyethylenenitrilo)tetraacetic acid (EGTA), 6 mM magnesium chloride, 0.25 mg/ml bovine serum albumin, 1.2 »M ³H-cAMP (310 mCi/mmole) and the phosphodiesterase type IIIc, and was prepared by dilution with water of a stock solution of MOPS, EGTA, MgCl₂, BSA and ³H-cAMP (50 »l) and 2 to 50 »l of a solution of phosphodiesterase type IIIc, depending on the enzymatic activity. […] When the effect of different compounds on phosphodiesterase activity was tested, the medium without cAMP was incubated with the compound(s) or its carrier (DMSO - 1% final concentration) for 5 min. The enzymatic reaction was started by addition of ³H-cAMP and stopped 10 min later after transferring the tubes in a waterbath at 100°C for 40 sec. After cooling to room temperature, alkaline phosphatase (0.25 »g/ml) was added and the mixture was left at room temperature for 20 min. The mixture was subsequently applied to a 1 ml DEAE-Sephadex A-25 column (pasteur pipet) and washed twice with 3 ml 20 mM Tris-HCl at pH 7.4. The ³H-labelled reaction products in the eluate were quantified by liquid scintillation counting. The inhibiting effect of the present compounds on canine heart and human platelet phosphodiesterase PDE IIIc was measured at different concentrations of the instant compounds. The IC₅₀ values were calculated graphically from the thus obtained inhibition values.

mongrel dogs [1] = assay: Haemodynamic variables in dogs after cumulative intravenous bolus administration; type: in vivo; settings: maximum end-dose 0.16 mg kg-1 (comp. 14: 0.08 mg kg-1)
Experimental: Compound (9) was dissolved in 20% hydroxypropyl beta cyclodextrine ether slightly acidified with 1N HCl, in a concentration of 1mg.ml⁻¹ (pH 5.5). The experiments were performed on 7 mongrel dogs of either sex and varying age, ranging in body weight from 27 to 33 kg (median 30 kg). The animals were intravenously anaesthetized with a mixture of 0.015 mg.kg⁻¹ scopolamine and 0.05 mg.kg⁻¹ lofentanil. The animals were intubated with a cuffed endotracheal tube. Intermittent positive pressure ventilation was performed with a mixture of pressurized air and oxygen (60/40), using a volumecontrolled ventilator (Siemens Elema). In the control period the CO₂ concentration in the expired air (ET CO₂), as determined with a capnograph (Gould Godart), was kept at 5 vol% by adjustment of the respiratory volume (resp. rate = 20 breaths.min⁻¹). A continous intravenous infusion of 0.5 mg.kg⁻¹.h⁻¹ of etomidate was started immediately after induction. Body temperature was monitored with a thermistor positioned in the pulmonary artery. To prevent blood clotting heparine, 1000 IU.kg⁻¹ iv., was administered. The electrocardiogram (ECG) was derived from limb leads (standard lead 2). Left ventricular (LVP) and ascending aortic blood pressure (AoP) were measured by retrograde catheterisation via the femoral […] with high fidelity cathetertip micromanometers (Honeywell). The other femoral vein was cannulated for injection of saline at room temperature into the right atrium and for injection of compound (9). Peak ascending aortic blood flow velocity was measured through the right carotid artery with an electomagnetic catheter-tip probe connected to a square wave electomagnetic flow meter (Janssen Scientific Instruments). The following variables -inter alia- were calculated on-line, usually at 1 min intervals: heart rate (HR), diastolic (AoPd) aortic blood pressure, left ventricular end-diastolic pressure (LVEDP), the maximum positive and maximum negative rate of change of isovolumic LVP (LV dp/dt max and min, respectively), the maximum positive first derivative divided by the actually developed pressure in the left ventricle (LV dp/dtmax/Pd). The time constant (T) of relaxation was measured with the use of an exponential analysis that also estimated the asymptote. […] In the wash-out period the effects were followed for 75 min. […]

mongrel dogs [2] = assay: Positive inotropy and lusitropy, blood pressure and heart rate in anaesthetized dogs, slow intravenous infusion; type: in vivo; settings: for cardiac output / heart rate: slow iv infusion over 120 min
Experimental: The positive inotropic and lusitropic effect of the instant compounds were assessed by an in vitro assay system to detect inhibiting effect on the phosphodiesterase type IIIc and in an in vivo experiment in closed-chest anaestetized dogs by monitoring cardiac and haemodynamic effects of an intravenous infusion of the instant compounds.
Compound (9) was dissolved in 20% hydroxypropyl beta cyclodextrine ether slightly acidified with 1N HCl, in a concentration of 1mg.ml⁻¹ (pH 5.5). The experiments were performed on 7 mongrel dogs of either sex and varying age, ranging in body weight from 27 to 33 kg (median 30 kg). The animals were intravenously anaesthetized with a mixture of 0.015 mg.kg⁻¹ scopolamine and 0.05 mg.kg⁻¹ lofentanil. The animals were intubated with a cuffed endotracheal tube. Intermittent positive pressure ventilation was performed with a mixture of pressurized air and oxygen (60/40), using a volumecontrolled ventilator (Siemens Elema). In the control period the CO₂ concentration in the expired air (ET CO₂), as determined with a capnograph (Gould Godart), was kept at 5 vol% by adjustment of the respiratory volume (resp. rate = 20 breaths.min⁻¹). A continous intravenous infusion of 0.5 mg.kg⁻¹.h⁻¹ of etomidate was started immediately after induction. Body temperature was monitored with a thermistor positioned in the pulmonary artery. To prevent blood clotting heparine, 1000 IU.kg⁻¹ iv., was administered. The electrocardiogram (ECG) was derived from limb leads (standard lead 2). Left ventricular (LVP) and ascending aortic blood pressure (AoP) were measured by retrograde catheterisation via the femoral […] with high fidelity cathetertip micromanometers (Honeywell). The other femoral vein was cannulated for injection of saline at room temperature into the right atrium and for injection of compound (9). Peak ascending aortic blood flow velocity was measured through the right carotid artery with an electomagnetic catheter-tip probe connected to a square wave electomagnetic flow meter (Janssen Scientific Instruments). The following variables -inter alia- were calculated on-line, usually at 1 min intervals: heart rate (HR), diastolic (AoPd) aortic blood pressure, left ventricular end-diastolic pressure (LVEDP), the maximum positive and maximum negative rate of change of isovolumic LVP (LV dp/dt max and min, respectively), the maximum positive first derivative divided by the actually developed pressure in the left ventricle (LV dp/dtmax/Pd). The time constant (T) of relaxation was measured with the use of an exponential analysis that also estimated the asymptote. After a recorded control period of 20 min the intravenous infusion of compound (9) was started at a rate of […]. In the wash-out period the effects were followed for 75 min. […] These positive inotropic and lusitropic, and vasodilatory effects of the compound (9) are long-lasting, since the changes in the variables last for more than 75 min after stopping the infusion of a total dose of 0.60 mg.kg⁻¹. […]

[3] = slow infusion (0.005 mg kg-1 min-1) for two hours

SMILES: COc1ccc(C(=O)c2ccc3c(c2)CN2CC(=O)NC2=N3)cc1 [compound 12]
- % changes in haemodynamic variables: AoPd (diastolic aortic blood pressure) (mongrel dogs [1]): 0%
- % changes in haemodynamic variables: HR (heart rate) (mongrel dogs [1]): 10%
- % changes in haemodynamic variables: LVdp/dtmax/Pd (positive inotropic effect) (mongrel dogs [1]): 57.5%
- % changes in haemodynamic variables: T (time constant of relaxation, positive lusitropy) (mongrel dogs [1]): -10%

SMILES: COc1ccc(C(=NO)c2ccc3c(c2)CN2CC(=O)NC2=N3)cc1 [compound 13]
- % changes in haemodynamic variables: AoPd (diastolic aortic blood pressure) (mongrel dogs [1]): 0%
- % changes in haemodynamic variables: HR (heart rate) (mongrel dogs [1]): -10%
- % changes in haemodynamic variables: LVdp/dtmax/Pd (positive inotropic effect) (mongrel dogs [1]): 45%
- % changes in haemodynamic variables: T (time constant of relaxation, positive lusitropy) (mongrel dogs [1]): -27%

SMILES: O=C1CN2Cc3cc(C(=O)c4ccc(F)cc4)ccc3N=C2N1 [compound 14]
- IC50 (Human Platelet PDE IIIc): 520 nM
- % changes in haemodynamic variables: AoPd (diastolic aortic blood pressure) (mongrel dogs [1]): 0%
- % changes in haemodynamic variables: HR (heart rate) (mongrel dogs [1]): 5%
- % changes in haemodynamic variables: LVdp/dtmax/Pd (positive inotropic effect) (mongrel dogs [1]): 35%
- % changes in haemodynamic variables: T (time constant of relaxation, positive lusitropy) (mongrel dogs [1]): -16%

SMILES: COc1ccc(C(=O)c2ccc3c(c2)CN2CC(=O)NC2=N3)cc1OC [compound 24]
- IC50 (Human Platelet PDE IIIc): 340 nM

SMILES: CCOC(=O)C=C(c1ccccc1)c1ccc2c(c1)CN1CC(=O)NC1=N2 [compound 32]
- IC50 (Human Platelet PDE IIIc): 84 nM

Second part, led by results:

- IC50 (Human Platelet PDE IIIc): 190 nM
SMILES: O=C1CN2Cc3cc(C(=NO)c4ccccc4)ccc3N=C2N1 [compound 2, (E+Z)-3,5-dihydro-7-[(hydroxyimino)phenylmethyl]imidazo[2,1-b]quinazolin-2(1H)-one]
- % changes in haemodynamic variables: AoPd (diastolic aortic blood pressure) (mongrel dogs [1]): -10%
- % changes in haemodynamic variables: HR (heart rate) (mongrel dogs [1]): 15%
- % changes in haemodynamic variables: LVdp/dtmax/Pd (positive inotropic effect) (mongrel dogs [1]): 102%
- % changes in haemodynamic variables: T (time constant of relaxation, positive lusitropy) (mongrel dogs [1]): -38%

- IC50 (Human Platelet PDE IIIc): 190 nM
SMILES: O=C1CN2Cc3cc(/C(=N/O)c4ccccc4)ccc3N=C2N1 [compound 3, (E)-3,5-dihydro-7-[(hydroxyimino)phenylmethyl]imidazo[2,1-b]quinazolin-2(1H)-one]
- cardiac output (mongrel dogs [2]; anaesthetized mongrel dogs): increase in cardiac output
- heart rate (mongrel dogs [2]; anaesthetized mongrel dogs): without changing the heart rate
- cardiac inotropy and lusitropy (mongrel dogs [2]; [3]): dose-related increase
- duration of effects after stopping the infusion (mongrel dogs [2]; [3]): more than 90 minutes
- systemic vasodilation (mongrel dogs [2]; [3]): dose-related systemic vasodilation

- IC50 (Human Platelet PDE IIIc): 380 nM
SMILES: CCOC(=O)CON=C(c1ccccc1)c1ccc2c(c1)CN1CC(=O)NC1=N2 [compound 6]
- % changes in haemodynamic variables: AoPd (diastolic aortic blood pressure) (mongrel dogs [1]): -13%
- % changes in haemodynamic variables: HR (heart rate) (mongrel dogs [1]): 9%
- % changes in haemodynamic variables: LVdp/dtmax/Pd (positive inotropic effect) (mongrel dogs [1]): 31%
- % changes in haemodynamic variables: T (time constant of relaxation, positive lusitropy) (mongrel dogs [1]): -15%

- IC50 (Human Platelet PDE IIIc): 58 nM
SMILES: CN(C(=O)CON=C(c1ccccc1)c1ccc2c(c1)CN1CC(=O)NC1=N2)C1CCCCC1 [compound 8]
- % changes in haemodynamic variables: AoPd (diastolic aortic blood pressure) (mongrel dogs [1]): 0%
- % changes in haemodynamic variables: HR (heart rate) (mongrel dogs [1]): 0%
- % changes in haemodynamic variables: LVdp/dtmax/Pd (positive inotropic effect) (mongrel dogs [1]): 29%
- % changes in haemodynamic variables: T (time constant of relaxation, positive lusitropy) (mongrel dogs [1]): -45%

- IC50 (Human Platelet PDE IIIc): 25 nM
SMILES: CN(C(=O)CO/N=C(\c1ccccc1)c1ccc2c(c1)CN1CC(=O)NC1=N2)C1CCCCC1 [compound 9, (E)-N-cyclohexyl-N-methyl-2-[[[phenyl(1,2,3,5-tetrahydro-2-oxoimidazo[2,1-b]quinazolin-7-yl)methylene]amino]oxy]acetamide]
- variables related to cardiac performance (LV dp/dtmax, LV dp/dtmax/Pd) (mongrel dogs [2]; 7 anaesthetized mongrel dogs, iv infusion over 120 min, starting after 10 min of infusion (0.05 mg.kg-1 total dose)): pronounced and significant increase
- left ventricular end-diastolic pressure (preload) (mongrel dogs [2]; anaesthetized mongrel dogs, iv infusion over 120 min): no change or even a slight decrease
- time constant of relaxation (mongrel dogs [2]; anaesthetized mongrel dogs, iv infusion, starting after 10 min of infusion (0.05 mg.kg-1 total dose)): significant decrease
- Systemic and pulmonary peripheral vascular resistance (mongrel dogs [2]; anaesthetized mongrel dogs, iv infusion, starting after 20 min of infusion (0.10 mg.kg-1 total dose)): decrease significantly
- cardiac output (mongrel dogs [2]; anaesthetized mongrel dogs): concomitant increase in cardiac output
- heart rate (mongrel dogs [2]; anaesthetized mongrel dogs): no change in heart rate
- duration of the changes in the variables after stopping the infusion (mongrel dogs [2]; positive inotropic, lusitropic and vasodilatory effects, total dose of 0.60 mg.kg-1): more than 75 min

- IC50 (Human Platelet PDE IIIc): 140 nM
SMILES: CN(C(=O)CO/N=C(/c1ccccc1)c1ccc2c(c1)CN1CC(=O)NC1=N2)C1CCCCC1 [compound 10, (Z)-N-cyclohexyl-N-methyl-2-[[[phenyl(1,2,3,5-tetrahydro-2-oxoimidazo[2,1-b]quinazolin-7-yl)methylene]amino]-oxy]acetamide]
- % changes in haemodynamic variables: AoPd (diastolic aortic blood pressure) (mongrel dogs [1]): -5%
- % changes in haemodynamic variables: HR (heart rate) (mongrel dogs [1]): 0%
- % changes in haemodynamic variables: LVdp/dtmax/Pd (positive inotropic effect) (mongrel dogs [1]): 18%
- % changes in haemodynamic variables: T (time constant of relaxation, positive lusitropy) (mongrel dogs [1]): -13%
